Source: patent US20240139153A1, “Inhibition of Endothelial ETS Family Transcription Factors Promotes Flow-Dependent Ocular Vessel Regression” (Oklahoma Medical Research Foundation, priority 2020, published 2024)

Key:
HUVECs = assay: HUVEC flow chamber study, static versus flow; format: cell-based, Human
Experimental: Cell Culture/Flow Studies. Flow-based cell culture was performed using HUVECs (ATCC; #PCS-100-010) cultured in complete EGM-2 media (Lonza). HUVECs were cultured on Ibidi Luer^0,6 flow slides and allowed to grow at 37° C. in 5% CO2 for 24 h to a confluency of 80-90%. Slides were then attached to an Ibidi pump system with Perfusion Set Red (1.6 mm, #10962) and exposed to a sheer stress of 10 dyn/cm^2 for 24 h. Static conditions were achieved by similarly plating HUVECs in flow slides that were not exposed to flow. […] Cells were gently washed with 1 mL ice-cold PBS, then fixed and permeabilized by incubation with ice-cold methanol for 5 min. Fixed cells were treated with 1% BSA, 0.02% Triton X-100 for 1 hr at room temperature. Primary and secondary antibodies were added in 1% BSA and incubated for 2 hr at room temperature.
HUVECs grown in this 3D culture model form vascular lumens despite the absence of blood flow. […] This possibility is supported by a recent report that the transcriptional consequences of ERG inhibition are greatly mitigated in ECs exposed to sheer stress^58.

3D HUVEC cultures = assay: Vasculogenic 3D collagen assay, regression of 3D lumenized HUVEC cultures; format: cell-based, Human
Experimental: Vasculogenic 3D collagen assays. Human Umbilical Vein ECs were purchased from Lonza and used from passages 3 to 6 as previously described^42,43. ECs were suspended in 2.5 mg/mL collagen type I matrices, and assays were performed as described^42,43. With the exception that the culture media contained reduced serum supplement (RSII), ascorbic acid, FGF-2, Stem cell factor (SCF) at 40 ng/ml and interleukin-3 (IL-3) were added at 40 ng/ml. Stromal-derived factor-1α (SDF-1α) was added at 200 ng/ml into collagen type I matrices. Cultures were incubated at 37° C. in serum-free defined media and allowed to assemble over time. Cultures were fixed at 72 hr with 3% glutaraldehyde before staining with 0.1% toluidine blue in 30% methanol for nonfluorescent visualization. Lumen area was quantified by using Metamorph software as previously described^42,43. Individual data points were obtained from a triplicate wells and a minimum of 12 independent fields from these wells.
Bioassays with pharmacologic agents and cytokines. […] In some assays, triplicate wells were lysed with sample buffer and Western blots were performed to probe for pro-caspase 3 and actin.
YK-4-279 promotes flow-dependent vascular regression in vitro. […] Importantly, this culture model recapitulates many aspects of in vivo vessel morphology and has previously been used to model vascular regression^40.

hyaloid vessels = assay: Hyaloid vessel regression after intravitreal injection; format: in vivo, mice; conditions: intravitreal injection at P5, assessed at P7, versus vehicle-injected littermate controls; final concentration ~10 μmol/L in vitreous
Experimental: Hyaloid Dissection and Quantification. Hyaloid were dissected and quantified as described previously. Briefly, eyes were enucleated from P4-P8 mice and fixed for 30 min in 4% paraformaldehyde (PFA). The eyes were then transferred to PBS and dissected by removal of the lens and sclera leaving the retinal cup in which the hyaloids were loosely wrapped around the lens. The lens was then carefully removed from which the hyaloids were gently removed. The hyaloids were then transferred in a drop of PBS and flat mounted for imaging by carefully removing the remaining PBS.
Quantification of hyaloid regression was accomplished by drawing an outline of hyaloid flat mounts (labeled with Isolectin-B4) which was then decreased in size by 50% and centered over the hyaloid flat mount. Blind counts of hyaloid vessel number were performed by counting the number of vessels which crossed the 50% outline.
Hyperthermia-induced anesthesia of wild type P5 mice was accomplished by submerging pups in ice for 5-8 min after placing them in a latex blanket wrapped in foil to avoid direct contact between the pup and ice. Once anesthetized (assessed by toe pinch) eyes were administered a drop of proparacaine hydrochloride ophthalmic solution (Akorn), followed by gentle exposure of the eye globe. […] Eyelids were then reclosed around the eye, and erythromycin ophthalmic ointment (Akorn) was applied. […]

healthy retinal vessels = assay: Healthy retinal vessels of adult wild type mice after intravitreal injection; format: in vivo; conditions: 48 hr after intraocular injection
Description: Vascular length (FIG. 8B; n=4) and branch points (FIG. 8C; n=4) from retinas treated as in (FIG. 8A) were quantified using AutoTube and normalized to retinal area per image. NS=not significant (two-tailed Student's t-test). Error bars=S.D.

retinal neovessels = conditions: OIR mice
Description: OIR Studies/Quantification. […] Generally, pups with their dams were maintained in room air from birth until P7. From P7 to P12 pups were exposed to 75% O2 in an oxygen chamber regulated by an OxyCycler Model A84. After 2.5 d of oxygen exposure, the dams were replaced with healthy lactating dams to prevent oxygen toxicity. At P12 pups were returned to room air until P18.
Two days after the injection, P20 mice were euthanized and retinas were dissected and immunostained for CD31 to quantify retinal vascular area as previously described^45.

ROP = conditions: intravitreal injection, randomized study; cited from earlier work
[1] = inhibitor-injected eye relative to control eye

Molecule	active caspase-3 staining (HUVECs; flow conditions, 10 dyn/cm^2)	alignment of HUVECs in the direction of flow (HUVECs; flow conditions, 10 dyn/cm^2)	cell number (HUVECs; flow conditions, 10 dyn/cm^2)	active caspase-3 staining (HUVECs; static conditions, 5 μM, 24 hr)	cell number (HUVECs; static conditions, 5 μM, 24 hr)	concentrations giving significant, dose-dependent loss of vascular luminal area (3D HUVEC cultures; 3D HUVEC cultures, 48 h treatment, toluidine blue stain)	pro-caspase 3 signal (Western blot) (3D HUVEC cultures; 3D HUVEC cultures, FIG. 5C)	extent of vascular regression (3D HUVEC lumen area) on co-incubation with cytokines (3D HUVEC cultures; co-incubation of TNFα or IL1β with YK-4-279, versus YK-4-279 alone)	reduction in hyaloid vessel number (hyaloid vessels)	effects on retinal vascularization (vascular length, branch points) (healthy retinal vessels)	mice showing an increase in neovessels (retinal neovessels; [1])	mice with a decrease in retinal neovascular area (retinal neovessels; [1])	decrease in the retinal avascular area (retinal neovessels; intravitreal injection at P18, analysed at P20, versus vehicle)	reduction in retinal neovascular area (retinal neovessels; intravitreal injection at P18, analysed at P20, versus vehicle-injected contralateral eye)	efficacy versus conventional laser-based therapy for treating ROP (ROP)
COc1ccc(C(=O)CC2(O)C(=O)Nc3c(Cl)ccc(Cl)c32)cc1 (stereo not drawn) [YK-4-279]	no apparent effect	inhibited the alignment	no apparent effect	increased active caspase-3 staining	significantly reduced cell numbers	greater than 1.25 μM	Reduced pro-caspase 3 signal	further increases the extent of vascular regression	~40%	no effects	one	9 out of 11	~60%	~40%	–
bevacizumab: a monoclonal VEGF-A antibody	–	–	–	–	–	–	–	–	–	–	–	–	–	–	more effective
